Source: patent publication US6741954B2, “Selection method for odorants” (Symrise GmbH & Co. KG, priority 2000, dated 2004)
Like-named read-outs stand apart in the source and are kept apart here.

What was measured:
Type in all cases: physicochemical
[1] = Headspace above the solution of WC scented block cleaner: relative partition parameter (SPME-GC); conditions: log of amount in headspace above 1% solution in water relative to amount in WC block; 1% odorant mixture, SPME 15 min
Method: (§1) The procedure is analogous in all examples.
The example reflects the scent impression, which is perceived from a WC scented block cleaner. The mixture of 39 odorants is incorporated into the toilet block in an amount of 1%. A 1% solution of the toilet block in water is prepared. 20 ml of this solution are transferred to a 100 ml Erlenmeyer flask sealed with a septum. The headspace above the shampoo is extracted by means of a SPME over 15 min. […] The analytical results are then used mathematically as described above.

[2] = Headspace above the washing powder: relative partition parameter (SPME-GC)
Method: as §1
(§2) The example reflects the scent impression, which is perceived from a freshly opened pack of laundry detergent. The mixture of 39 odorants is incorporated in the above-mentioned washing powder in an amount of 0.5%. 20 g of the washing powder are transferred to a 100 ml Erlenmeyer flask sealed with a septum. The headspace above the shampoo is extracted using a SPME over 15 min. […] The analytical results are then used mathematically as described above.

[3] = Headspace above the candle wax: relative partition parameter (SPME-GC); conditions: log of amount in headspace relative to amount in candle wax; 5% odorant mixture, grated nonburning candle, SPME 15 min
Method: as §1
as §2, with “nonburning candle.” for “freshly opened pack of laundry detergent.”, “into a candle” for “in the above-mentioned washing powder”, “5%.” for “0.5%.”, “grated candle” for “washing powder”, “candle” for “shampoo”

[4] = Headspace above the fresh gel room air freshener: relative partition parameter (SPME-GC); conditions: log of amount in headspace relative to amount in gel; 5% odorant mixture, 10 liter vessel, 1 h, SPME 15 min
Method: as §1
The example reflects the scent impression, which is perceived above a fresh gel room air freshener. The mixture of 39 odorants is incorporated into an air freshener in an amount of 5%. 100 g of the air freshener are placed in its customary presentation form in a large sealed 10 liter vessel. The air freshener is left to stand for one hour. The headspace above the air freshener is extracted using a SPME over 15 min. […] The analytical results are then used mathematically as described above.

[5] = Headspace above the shampoo: relative partition parameter (SPME-GC); conditions: log of amount in headspace relative to amount in shampoo; 1% odorant mixture, SPME 15 min
Method: as §1
The example reflects the scent impression, which is perceived from a freshly opened bottle of shampoo. The mixture of 39 odorants is incorporated into the above-mentioned shampoo (1) in an amount of 1%. 20 g of the shampoo are transferred to a 100 ml Erlenmeyer flask sealed with a septum. The headspace above the shampoo is extracted using a SPME over 15 min. […] The analytical results are then used mathematically as described above.

[6] = Headspace above the soap bar: relative partition parameter (SPME-GC)
Method: as §1
The example reflects the scent impression, which is perceived from a fresh bar of soap. […] 20 g of the grated soap are transferred to a 100 ml Erlenmeyer flask sealed with a septum. The headspace above the shampoo is extracted using a SPME over 15 min. […] The analytical results are then used mathematically as described above.

[7] = Headspace above the wet washed hair: relative partition parameter headspace/shampoo (SPME-GC)
Method: as §1
The example reflects the scent impression, which is perceived from freshly washed hair. The shampoo is prepared as is generally customary. The mixture of 39 odorants is incorporated into the above-mentioned shampoo (1st) in an amount of 1%. A hair tress (2.5 g) is washed in 100 ml of a 20% shampoo solution in water by immersing 5-10 times and stirring, and then rinsed in 100 ml of clear water by immersing it three times. The hair tress is carefully patted with thin cellulose. The moist hair tress is transferred to a 100 ml Erlenmeyer flask sealed with a septum and left to stand for 3 h. The headspace above the washed and rinsed hair tress is extracted over 15 min using solid phase microextraction (SPME). The SPME needle is desorbed in a GC injector, and a gas chromatogram is recorded. […] The analytical results are then used mathematically as described above.

[8] = log of amount in headspace relative to amount in washing powder, 0.5% odorant mixture, SPME 15 min
[9] = log of amount in headspace relative to amount in soap, 1.2% odorant mixture, grated soap, SPME 15 min
[10] = log of amount in headspace above wet washed hair relative to amount in shampoo, 1% odorant mixture, 3 h standing, SPME 15 min

SMILES | Activity (logarithmic partition parameter above dissolved WC scented block cleaners) [1] | Activity (logarithmic partition parameter above washing powder) [2, 8] | Activity (logarithmic partition parameter above candle wax) [3] | Activity (logarithmic partition parameter above gel room air fresheners) [4] | Activity (logarithmic partition parameter above shampoo) [5] | Activity (logarithmic partition parameter above soap) [6, 9] | Activity (logarithmic partition parameter above wet hair) [7, 10] | Activity (logarithmic partition parameter above washing powder) [2] | Activity (logarithmic partition parameter above soap) [6] | Activity (logarithmic partition parameter above wet hair) [7]
C=C1CCC2CC1C2(C)C (stereo not drawn) [beta-Pinene] | −1.682 | 0.415 | 0.701 | −0.090 | 0.830 | 0.469 | −0.647 | – | – | –
CC(C)=CCCC(C)CCO (stereo not shown) [Citronellol] | −1.575 | −0.780 | −1.159 | −0.158 | −1.406 | −0.787 | −1.818 | – | – | –
CC(=O)/C=C/C1C(C)=CCCC1(C)C (stereo not drawn) [Ionone, alpha] | −1.152 | −0.697 | −1.441 | −0.515 | −1.157 | −0.701 | −1.559 | – | – | –
CC(=O)/C=C/C1=C(C)CCCC1(C)C [Ionone, beta] | −0.819 | −0.778 | −1.606 | −0.662 | −1.282 | −0.837 | −1.636 | – | – | –
CC(C)=CCC/C(C)=C/CO [Geraniol] | −2.045 | −0.976 | −1.273 | −0.365 | −1.839 | −0.952 | −2.043 | – | – | –
C=CC(C)CCCC(C)(C)O (stereo not shown) [Dihydromyrcenol] | −1.131 | 0.184 | −0.324 | 0.460 | −0.287 | 0.076 | −1.056 | – | – | –
CC(=O)OC(C)(C)C1CC=C(C)CC1 (stereo not shown) [Terpinyl acetate] | −0.524 | – | −0.979 | −0.029 | −0.561 | – | – | −0.196 | −0.253 | −1.135
CC(=O)OCC=C(C)C [Prenyl acetate] | −1.070 | 1.167 | 0.726 | 0.674 | 0.844 | 1.180 | −0.299 | – | – | –
CC1=CCC(C(C)C)=CC1 [gamma-Terpinene] | −1.230 | 0.771 | 0.342 | 0.126 | 1.009 | 0.819 | −0.074 | – | – | –
CC(=O)OCc1ccccc1 [Benzyl acetate] | −1.552 | 0.224 | −0.244 | 0.594 | −0.293 | 0.538 | −1.006 | – | – | –
